Molecules are shown by their SMILES. A value given as a limit tells only on which side of the number the result lay.

Drawing on patent publication US20210179620A1, “MESOIONIC I[…] AND DERIVATIVES FOR COMBATING ANIMAL PESTS” (BASF SE, priority 2017, published 2021), this text covers mortality for one molecule.

Test [1] deals with vetch aphid (Megoura viciae). The test can be described thus: Vetch aphid contact or systemic test, broad bean leaf disks in 24-well microtiter plates. It is filed as in vivo. Particulars: foliar, 120 h, sprayed broad bean leaf disks, adult aphids, 5 days, read-out: mortality in comparison with untreated controls. On the procedure: Vetch Aphid (Megoura viciae):
For evaluating control of vetch aphid (Megoura viciae) through contact or systemic means the test unit consisted of 24-well-microtiter plates containing broad bean leaf disks.
The compounds were formulated using a solution containing 75% v/v water and 25% v/v DMSO. Different concentrations of formulated compounds were sprayed onto the leaf disks at 2.5 μl, using a custom built micro atomizer, at two replications. After application, the leaf disks were air-dried and 5-8 adult aphids placed on the leaf disks inside the microtiter plate wells. The aphids were then allowed to suck on the treated leaf disks and incubated at about 23+1° C. and about 50+5% relative humidity for 5 days. Aphid mortality and fecundity was then visually assessed.

In test [2] the test system is green peach aphid (Myzus persicae). The test can be described thus: Green peach aphid systemic test, artificial diet in 96-well microtiter plates. Format: in vivo. To be noted: 72 h, adult aphids on treated artificial diet, 3 days, read-out: mortality in comparison with untreated controls. From the text:
Green Peach Aphid (Myzus persicae):
For evaluating control of green peach aphid (Myzus persicae) through systemic means the test unit consisted of 96-well-microtiter plates containing liquid artificial diet under an artificial membrane.
The compounds were formulated using a solution containing 75% v/v water and 25% v/v DMSO. Different concentrations of formulated compounds were pipetted into the 30 aphid diet, using a custom built pipetter, at two replications.
After application, 5-8 adult aphids were placed on the artificial membrane inside the microtiter plate wells. The aphids were then allowed to suck on the treated aphid diet and incubated at about 23˜1° C. and about 50˜5% relative humidity for 3 days. Aphid mortality and fecundity was then visually assessed.

As usually defined, the mortality is the percentage killed. For `Cn1c(C(=O)CCl)c([O-])[n+]2c1SCC2c1cnc(Cl)s1` (centres unmarked) [C-1, 6-(2-chloroacetyl)-3-(2-chlorothiazol-5-yl)-7-methyl-2,3-dihydroimidazo[2,1-b]thiazol-4-ium-5-olate], the mortality at 2500 ppm in test [1] and in test [2] was more than 75% throughout.
